{"source": "PubChem BioAssay AID1963985", "about": "(Molecular Pharmacology Branch, DTP, NCI, 2024);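 also: spheroids exposed to agents for seven days before readout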;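 as to viability, T/C: percent of vehicle DMSO control viability so 100% = untreated growth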", "tested_on": "252836-082-R-J2-PDC tumor spheroids, viability", "test": "Anticancer human tumor 252836-082-R-J2-PDC patient-derived head and neck squamous cell carcinoma cell line growth inhibition [PI3K]", "conditions": "spheroids with HUVEC and MSC; for IC50: curve of first compound; for viability, T/C: stronger effect = lower value", "text": "Combinatorial screen of targeted agents with the PI3K inhibitors inavolisib, alpelisib, duvelisib, and copanlisib in multi-cell type tumor spheroids\nA high-throughput screen of multi-cell type tumor spheroids was designed to identify active combinations of targeted small molecules and PI3K pathway inhibitors. Complex spheroids include a stromal component modeled by human endothelial cells (HUVEC) and fibroblasts modeled by human mesenchymal stem cells (MSCs). The concentration ranges selected for each drug and investigational agent were based upon clinically achievable concentrations if the clinical Cmax of the agent was known.\nCompounds. The drugs and investigational agents: inavolisib (NSC800729), alpelisib (NSC765974), duvelisib (NSC772469), copanlisib (NSC816437), ipatasertib (NSC767898), afuresertib (NSC778305), talazoparib (NSC767125), sapanisertib (NSC764658), selumetinib (NSC741078), tovorafenib (DAY101, NSC766906), vemurafenib (NSC761431), ravoxertinib (NSC781343), sotorasib (NSC818433), MRTX1133 (NSC 836407), abemaciclib (NSC 768073), palbociclib (NSC758247), venetoclax (NSC 766270), SY5609 (NSC837396), enzalutamide (NSC755605), and darolutamide (NSC825331), were obtained from the National Cancer Institute (NCI) Developmental Therapeutics Program Chemical Repository. The FDA-approved anticancer drug set is available from the NCI Developmental Therapeutics Program. […] The stock solutions were prepared in dimethyl sulfoxide (DMSO, Sigma-Aldrich, St. Louis, MO, cat. D2650) at 800-fold the tested concentration and stored at -70 degrees C prior to their use. All drugs and investigational agents were tested over a range starting from a high concentration at or near the clinical Cmax and decreasing in half-log increments. If the clinical Cmax for an agent had not been determined, the highest concentration tested was 10 microM.\nCell Culture. All cells were maintained in an incubator at 37 degrees C and 5% CO2 with 95% humidity. The PDC lines were cultured according to standard operating procedures established by the NCI PDMR (https://pdmr.cancer.gov/sops/default.htm). All PDCs were thawed and cultured in Matrigel-coated flasks prepared with a working solution of 1X Ham's F-12 nutrient mix, without supplementation (Invitrogen, Waltham, MA, cat. 11765054), 100 U/mL penicillin-streptomycin (Invitrogen, cat. 15140122), and 2.5% Matrigel (Corning Inc., Corning, NY, cat. 354248) for the first three passages. The 354836-022-R-J1-PDC, 475296-252-R-J1-PDC, and 997726-040-R-J2-PDC lines were cultured in 6A media, which includes advanced DMEM/F-12 (Thermo Fisher Scientific, cat. 12634028), 10 mM HEPES (Thermo Fisher Scientific, cat. 15630080), 1X GlutaMAX supplement (Thermo Fisher Scientific, cat. 35050061), 0.1 mg/mL primocin (InvivoGen, San Diego, CA, cat. ant-pm-2), 10% defined fetal bovine serum, heat inactivated (HyClone Laboratories Inc., Logan, UT, cat. SH30070.03HI), 50% L-WRN conditioned media (ATCC, cat. CRL-3276), 1.25 mM N-Acetyl-L-cysteine (Sigma-Aldrich, cat. A9165), 10 mM nicotinamide (Sigma-Aldrich, cat. N0636), 1X B-27 supplement (Thermo Fisher Scientific, cat. 17504044), 1X N-2 supplement (Thermo Fisher Scientific, cat. 17502048), and 10 microM Y-27632 dihydrochloride (Tocris Bioscience, Bristol, United Kingdom, cat. 1254). The 624824-186-R-J2-PDC line was cultured in 6C/Colon 1B media, which includes all 6A media components plus 50 ng/mL human EGF recombinant protein (Thermo Fisher Scientific, cat. PHG0311). […]"}
{"smiles": "Cn1ncnc1[C@H]1c2n[nH]c(=O)c3cc(F)cc(c23)N[C@@H]1c1ccc(F)cc1", "note": "+ COc1c(OCCCN2CCOCC2)ccc2c3n(c(=NC(=O)c4cnc(N)nc4)nc12)CCN3", "values": [{"measurement": "IC50", "setting": "second compound 0.00316 µM", "result": 90.6, "unit": "nM"}, {"measurement": "IC50", "setting": "second compound 0.01 µM", "result": 44.1, "unit": "nM"}, {"measurement": "IC50", "setting": "second compound 0.0316 µM", "result": 13, "unit": "nM"}, {"measurement": "IC50", "setting": "second compound 0.1 µM", "result": "< 0.316", "unit": "nM"}, {"measurement": "IC50", "setting": "second compound 0.316 µM", "result": "< 0.316", "unit": "nM"}, {"measurement": "IC50", "setting": "second compound 1 µM", "result": "< 0.316", "unit": "nM"}, {"measurement": "viability, T/C", "setting": "second compound 0.00316 µM, first compound 0.000316 µM", "result": 84.3, "unit": "%"}, {"measurement": "viability, T/C", "setting": "second compound 0.00316 µM, first compound 0.001 µM", "result": 88.2, "unit": "%"}, {"measurement": "viability, T/C", "setting": "second compound 0.00316 µM, first compound 0.00316 µM", "result": 86.4, "unit": "%"}, {"measurement": "viability, T/C", "setting": "second compound 0.00316 µM, first compound 0.01 µM", "result": 72.1, "unit": "%"}, {"measurement": "viability, T/C", "setting": "second compound 0.00316 µM, first compound 0.0316 µM", "result": 59.7, "unit": "%"}, {"measurement": "viability, T/C", "setting": "second compound 0.00316 µM, first compound 0.1 µM", "result": 48.6, "unit": "%"}, {"measurement": "viability, T/C", "setting": "second compound 0.01 µM, first compound 0.000316 µM", "result": 80.1, "unit": "%"}, {"measurement": "viability, T/C", "setting": "second compound 0.01 µM, first compound 0.001 µM", "result": 67.5, "unit": "%"}, {"measurement": "viability, T/C", "setting": "second compound 0.01 µM, first compound 0.00316 µM", "result": 80.7, "unit": "%"}, {"measurement": "viability, T/C", "setting": "second compound 0.01 µM, first compound 0.01 µM", "result": 72.8, "unit": "%"}, {"measurement": "viability, T/C", "setting": "second compound 0.01 µM, first compound 0.0316 µM", "result": 55.6, "unit": "%"}, {"measurement": "viability, T/C", "setting": "second compound 0.01 µM, first compound 0.1 µM", "result": 36.2, "unit": "%"}, {"measurement": "viability, T/C", "setting": "second compound 0.0316 µM, first compound 0.000316 µM", "result": 49.3, "unit": "%"}, {"measurement": "viability, T/C", "setting": "second compound 0.0316 µM, first compound 0.001 µM", "result": 60.8, "unit": "%"}, {"measurement": "viability, T/C", "setting": "second compound 0.0316 µM, first compound 0.00316 µM", "result": 52, "unit": "%"}, {"measurement": "viability, T/C", "setting": "second compound 0.0316 µM, first compound 0.01 µM", "result": 52.1, "unit": "%"}, {"measurement": "viability, T/C", "setting": "second compound 0.0316 µM, first compound 0.0316 µM", "result": 44.2, "unit": "%"}, {"measurement": "viability, T/C", "setting": "second compound 0.0316 µM, first compound 0.1 µM", "result": 24.4, "unit": "%"}, {"measurement": "viability, T/C", "setting": "second compound 0.1 µM, first compound 0.000316 µM", "result": 33.4, "unit": "%"}, {"measurement": "viability, T/C", "setting": "second compound 0.1 µM, first compound 0.001 µM", "result": 35.1, "unit": "%"}, {"measurement": "viability, T/C", "setting": "second compound 0.1 µM, first compound 0.00316 µM", "result": 34.8, "unit": "%"}, {"measurement": "viability, T/C", "setting": "second compound 0.1 µM, first compound 0.01 µM", "result": 30.9, "unit": "%"}, {"measurement": "viability, T/C", "setting": "second compound 0.1 µM, first compound 0.0316 µM", "result": 19, "unit": "%"}, {"measurement": "viability, T/C", "setting": "second compound 0.1 µM, first compound 0.1 µM", "result": 11.8, "unit": "%"}, {"measurement": "viability, T/C", "setting": "second compound 0.316 µM, first compound 0.000316 µM", "result": 19.1, "unit": "%"}, {"measurement": "viability, T/C", "setting": "second compound 0.316 µM, first compound 0.001 µM", "result": 16, "unit": "%"}, {"measurement": "viability, T/C", "setting": "second compound 0.316 µM, first compound 0.00316 µM", "result": 13.6, "unit": "%"}, {"measurement": "viability, T/C", "setting": "second compound 0.316 µM, first compound 0.01 µM", "result": 9.81, "unit": "%"}, {"measurement": "viability, T/C", "setting": "second compound 0.316 µM, first compound 0.0316 µM", "result": 8.53, "unit": "%"}, {"measurement": "viability, T/C", "setting": "second compound 0.316 µM, first compound 0.1 µM", "result": 6.35, "unit": "%"}, {"measurement": "viability, T/C", "setting": "second compound 1 µM, first compound 0.000316 µM", "result": 4.84, "unit": "%"}, {"measurement": "viability, T/C", "setting": "second compound 1 µM, first compound 0.001 µM", "result": 4.33, "unit": "%"}, {"measurement": "viability, T/C", "setting": "second compound 1 µM, first compound 0.00316 µM", "result": 3.36, "unit": "%"}, {"measurement": "viability, T/C", "setting": "second compound 1 µM, first compound 0.01 µM", "result": 2.93, "unit": "%"}, {"measurement": "viability, T/C", "setting": "second compound 1 µM, first compound 0.0316 µM", "result": 1.98, "unit": "%"}, {"measurement": "viability, T/C", "setting": "second compound 1 µM, first compound 0.1 µM", "result": 2.41, "unit": "%"}]}
